# Assay results as given in patent publication US8378100B2, “Phosphonate derivatives as autotaxin inhibitors” (University of Virginia Patent Foundation, priority 2008, dated 2013).
# Molecular target: recombinant human ATX (Homo sapiens, UniProt Q13822)
# Experiment: Choline detection assay for ATX
# Assay type: biochemical
# Conditions: for ATX activity (%) 1 μM: 1 μM test compound; for ATX activity (%) 1 μM / ATX activity (%) 10 Mm / ATX activity (%) 100 μM / ATX activity (%) 10 μM: activity without test compound = 100%; for ATX activity (%) 10 Mm: 10 μM test compound as printed; for ATX activity (%) 100 μM: 100 μM test compound; for ATX inhibition (in words): compounds synthesized from D-tyrosine; for ATX activity (%) 10 μM: 10 μM test compound
# Description: The phosphonate derivatives were tested in choline detection assay for ATX inhibition. The ATX activity assay was conducted in 0.1 ml, buffer: (in mM: Tris-HCl 100, pH9, NaCl 150, MgCl2 5, CoSO4 0.03, 0.05% Triton X-100), 1 mM 18:1 LPC, using recombinant human ATX with or without test compounds; incubation was for 16 hours at 37° C. The released choline was detected as follows: Samples were mixed with 0.15 ml of 50 mM TrisHCl containing 2.7 mM TOOS(N-ethyl-N-2-hydroxy-3-sulfopropyl)-m-toluidine, 2.7 mM 4-AAP (4-aminoantipyrine), 47.7 U/ml horseradish peroxidase, 18 U/ml choline oxidase, and 5 mM MgCl2. After 30 min incubation at 37° C., light absorbance (550 nm) was determined, and the amount of choline release was calculated from a standard curve.
# The ATX activity was measured in the presence of the test compounds under different concentrations (100 μM, 10 μM and 1 μM). The ATX activity without TEST compounds was used as the standard (100% activity). Some β-hydroxy phosphonate derivatives inhibited ATX activity at only the highest concentration tested. […] These two compounds were synthesized from protected L-tyrosine and they are diastereomers. The less polar isomer, f17, (also known as VPC8a202) was able to inhibit 73% of ATX activity at 1 μM.
SMILES,"ATX activity (%) 1 μM (Table 1 (f1-f34), 1 µM)",ATX activity (%) 10 Mm (Table 1 (f1-f34)),"ATX activity (%) 100 μM (Table 1 (f1-f34), 100 µM)",other results
"CCCCCCCCCCCCCCCC(=O)N[C@H](Cc1ccc(OCc2ccccc2)cc1)C(O)CP(=O)(O)O (single isomer, unassigned) [f5]",83%,82%,83%,–
"CCCCCCCCCCCCCCCC(=O)N[C@H](Cc1ccc(OCc2ccccc2)cc1)C(O)CP(=O)(O)O (single isomer, unassigned) [f6]",80%,81%,83%,–
"CCCCCCCCCCCCCCCC(=O)N[C@@H](Cc1ccc(OCc2ccccc2)cc1)C(O)CP(=O)(O)O (single isomer, unassigned) [f7]",97%,77%,68%,–
"CCCCCCCCCCCCCCCC(=O)N[C@@H](Cc1ccc(OCc2ccccc2)cc1)C(O)CP(=O)(O)O (single isomer, unassigned) [f8]",76%,83%,78%,–
"CCCCCCCCCCCCCCCC(=O)N[C@H](Cc1ccc(OCc2ccccc2)cc1)C(O)CP(=O)(O)O (single isomer, unassigned) [f9]",103%,76%,60%,–
"CCCCCCCCCCCCCCCC(=O)N[C@H](Cc1ccc(OCC2CCCCC2)cc1)C(O)CP(=O)(O)O (single isomer, unassigned) [f13]",–,80%,–,ATX activity (%) 1 μM (Table 1 (f1-f34)): 84%; ATX activity (%) 100 μM (Table 1 (f1-f34)): 67%
"CCCCCCCCCCCCCCCC(=O)N[C@@H](Cc1ccc(OCC2CCCCC2)cc1)C(O)CP(=O)(O)O (single isomer, unassigned) [f14]",–,80%,–,ATX activity (%) 1 μM (Table 1 (f1-f34)): 80%; ATX activity (%) 100 μM (Table 1 (f1-f34)): 80%
"CCCCCCCCCCCCCCCC(=O)N[C@H](Cc1ccc(OCc2ncc(C)c(OC)c2C)cc1)C(O)CP(=O)(O)O (single isomer, unassigned) [f15]",108%,95%,63%,ATX inhibition (in words): did potently inhibit ATX
"CCCCCCCCCCCCCCCC(=O)N[C@H](Cc1ccc(OCc2ncc(C)c(OC)c2C)cc1)C(O)CP(=O)(O)O (single isomer, unassigned) [f16]",69%,64%,47%,ATX inhibition (in words): did potently inhibit ATX
"CCCCCCCCCCCCCCCC(=O)N[C@@H](Cc1ccc(OCc2ncc(C)c(OC)c2C)cc1)C(O)CP(=O)(O)O (single isomer, unassigned) [f18]",–,21%,–,ATX activity (%) 1 μM (Table 1 (f1-f34)): 63%; ATX activity (%) 100 μM (Table 1 (f1-f34)): 8%; inhibition of ATX (in words) (at 1 μM): significant inhibition
"CCCCCCCCCCCCCCCC(=O)N[C@H](Cc1ccc(OC)cc1)C(O)CP(=O)(O)O (single isomer, unassigned) [f19]",100%,78%,57%,–
"CCCCCCCCCCCCCCCC(=O)N[C@H](Cc1ccc(OC)cc1)C(O)CP(=O)(O)O (single isomer, unassigned) [f20]",95%,84%,82%,–
"CCCCCCCCCCCCCCCC(=O)N[C@@H](Cc1ccc(OC)cc1)C(O)CP(=O)(O)O (single isomer, unassigned) [f21]",77%,56%,36%,–
"CCCCCCCCCCCCCCCC(=O)N[C@@H](Cc1ccc(OC)cc1)C(O)CP(=O)(O)O (single isomer, unassigned) [f22]",84%,80%,69%,–
"CCCCCCCCCCCCCCCC(=O)N[C@H](Cc1ccc(OCCC)cc1)C(O)CP(=O)(O)O (single isomer, unassigned) [f23]",80%,79%,72%,–
"CCCCCCCCCCCCCCCC(=O)N[C@H](Cc1ccc(OCCC)cc1)C(O)CP(=O)(O)O (single isomer, unassigned) [f24]",108%,108%,90%,–
"CCCCCCCCCCCCCCCC(=O)N[C@@H](Cc1ccc(OCCC)cc1)C(O)CP(=O)(O)O (single isomer, unassigned) [f25]",110%,97%,77%,–
"CCCCCCCCCCCCCCCC(=O)N[C@@H](Cc1ccc(OCCC)cc1)C(O)CP(=O)(O)O (single isomer, unassigned) [f26]",100%,100%,83%,–
"CCCCCCCCCCCCCCCC(=O)N[C@H](Cc1ccc(OCCCCC)cc1)C(O)CP(=O)(O)O (single isomer, unassigned) [f27]",81%,85%,80%,–
"CCCCCCCCCCCCCCCC(=O)N[C@H](Cc1ccc(OCCCCC)cc1)C(O)CP(=O)(O)O (single isomer, unassigned) [f28]",86%,82%,70%,–
"CCCCCCCCCCCCCCCC(=O)N[C@@H](Cc1ccc(OCCCCC)cc1)C(O)CP(=O)(O)O (single isomer, unassigned) [f29]",98%,83%,67%,–
"CCCCCCCCCCCCCCCC(=O)N[C@@H](Cc1ccc(OCCCCC)cc1)C(O)CP(=O)(O)O (single isomer, unassigned) [f30]",94%,90%,70%,–
"CCCCCCCCCC(=O)N[C@H](Cc1ccc(OCc2ncc(C)c(OC)c2C)cc1)C(O)CP(=O)(O)O (single isomer, unassigned) [f35]",–,–,–,ATX activity (%) 10 μM (Table 2 (f35-f44)): 86%; ATX activity (%) 100 μM (Table 2 (f35-f44)): 30%
"CCCCCCCCCCCCCC(=O)N[C@H](Cc1ccc(OCc2ncc(C)c(OC)c2C)cc1)C(O)CP(=O)(O)O (single isomer, unassigned) [f37]",–,–,–,"ATX activity (%) 10 μM (Table 2 (f35-f44)): 99%; ATX activity (%) 100 μM (Table 2 (f35-f44), 100 µM): 67%"
"CCCCCCCCCCCCCC(=O)N[C@H](Cc1ccc(OCc2ncc(C)c(OC)c2C)cc1)C(O)CP(=O)(O)O (single isomer, unassigned) [f38]",–,–,–,"ATX activity (%) 100 μM (Table 2 (f35-f44), 100 µM): 35%"
"CCCCCCCCCCCCCCCCCC(=O)N[C@@H](Cc1ccc(OCc2ncc(C)c(OC)c2C)cc1)C(O)CP(=O)(O)O (single isomer, unassigned) [f39]",–,–,–,"ATX activity (%) 1 μM (Table 2 (f35-f44)): 101%; ATX activity (%) 10 μM (Table 2 (f35-f44), 10 µM): 91%; ATX activity (%) 100 μM (Table 2 (f35-f44), 100 µM): 81%"
"CCCCCCCCCCCCCCCCCC(=O)N[C@@H](Cc1ccc(OCc2ncc(C)c(OC)c2C)cc1)C(O)CP(=O)(O)O (single isomer, unassigned) [f40]",–,–,–,"ATX activity (%) 10 μM (Table 2 (f35-f44), 10 µM): 90%; ATX activity (%) 100 μM (Table 2 (f35-f44), 100 µM): 62%"
"CCCCCCCC/C=C\CCCCCCCC(=O)N[C@@H](Cc1ccc(OCc2ncc(C)c(OC)c2C)cc1)C(O)CP(=O)(O)O (single isomer, unassigned) [f41]",–,–,–,"ATX activity (%) 10 μM (Table 2 (f35-f44), 10 µM): 45%; ATX activity (%) 100 μM (Table 2 (f35-f44), 100 µM): 15%"
"CCCCCCCC/C=C\CCCCCCCC(=O)N[C@@H](Cc1ccc(OCc2ncc(C)c(OC)c2C)cc1)C(O)CP(=O)(O)O (single isomer, unassigned) [f42]",–,–,–,"ATX activity (%) 1 μM (Table 2 (f35-f44)): 77%; ATX activity (%) 10 μM (Table 2 (f35-f44), 10 µM): 68%; ATX activity (%) 100 μM (Table 2 (f35-f44), 100 µM): 58%"
"CCCCCCCCCCCCCCCCCCCC(=O)NC(Cc1ccc(OCc2ncc(C)c(OC)c2C)cc1)C(O)CP(=O)(O)O (single isomer, unassigned) [f43]",–,–,–,ATX activity (%) 1 μM (Table 2 (f35-f44)): 64%; ATX activity (%) 10 μM (Table 2 (f35-f44)): 45%; ATX activity (%) 100 μM (Table 2 (f35-f44)): 10%
